In patent publication US20060111368A1, “Phosphodiesterase inhibitor” (Kyowa Hakko Kogyo Co., Ltd., priority 2002, published 2006):
Structures can show the parent of a compound that is named as a salt.

System: 6-hydroxydopamine (6OHDA)-treated rats
Assay: Test for activity to hyperkinesia in 6-hydroxydopamine (6OHDA)-treated rats
Type: in vivo, rat
Settings: 50 mg/kg test compound intraperitoneally, then L-DOPA 30 mg/kg and benserazide 7.5 mg/kg orally; vehicle group 1,298±193; 180° rotation = 1 count
Procedure: Test for Activity to Hyperkinesia in 6-hydroxydopamine (6OHDA)-Treated Rats
When the unilateral nigrostriatal pathway is lesioned with 6-OHDA, sensitivity of dopamine receptors in the striatum on the lesioned side is increased. When a dopamine activity enhancing substance such as L-DOPA is administered thereto, a rotating behavior takes place on the side opposite to the lesioned side. This animal model has been long positioned as an excellent test model of Parkinson's disease, and has been used for research of therapeutic agent for Parkinson's disease [Neurol. Neurobiol. vol. 33, p. 1 (1987)]. […]
After withdrawal of the administration of apomorphine for 14 days, L-DOPA and bensetazide were orally administered to the rats at doses of 100 mg/kg and 25 mg/kg respectively to induce hyperkinesia. At this time, the number of rotations was measured for 60 minutes immediately after the administration. […]
After 7 days from the dividing into groups, the number of rotations for 60 minutes was measured by similar manner as that of above-mentioned. […] Immediately after the administration, 30 mg/kg of L-DOPA and 7.5 mg/kg of benserazide were orally administered to A and B groups, and the number of rotations for 60 minutes was measured every 5 minutes. […]

For Cc1c(-c2ccc(-c3ccccc3CN3CCOCC3)cc2)nc2ccc(F)cc2c1CO [Compound 12, 6-Fluoro-4-hydroxymethyl-3-methyl-2-(2′-morpholinomethylbiphenyl-4-yl)quinoline dihydrochloride], the “total number of rotations for 60 minutes” value was 48±20.
